Measurements as given in PMC9146474, “3-(((1S,3S)-3-((R)-Hydroxy(4-(trifluoromethyl)phenyl)methyl)-4-oxocyclohexyl)methyl)pentane-2,4-dione: Design and Synthesis of New Stereopure Multi-Target Antidiabetic Agent” (Molecules, 2022).

What was measured:
[1] = target: α-glucosidase (Saccharomyces cerevisiae, UniProt P53341); format: biochemical
Method: The α-glucosidase inhibitory activity on the S,S,R-5 was performed as per the reported protocols. […] The α-glucosidase solution (0.5 units/mL) was prepared in phosphate buffer (0.1 M, 6.90 pH). p-Nitrophenyl-α-D-glucopyranoside (5 mM) was added as substrate solution to the buffer solution. Different concentrations of the compound, i.e., 500, 250, 125, 62.5, and 31.25 μM were prepared. The enzyme solutions were mixed with the compound’s solution and were incubated for 15 min at 37 °C. To these solutions were added the pre-prepared substrate solution and the repetition of incubation. The final reaction was completed with the addition of sodium carbonate solution (0.2 M, 80 μL). The combined solution excluding the α-glucosidase was used as a blank solution. The absorbances of the solutions were recorded at 405 nm. The observations were repeated three times. The percent inhibitions at each concentration and the IC50 values were calculated according to the standard formula [48].

[2] = target: T1, protein tyrosine phosphatase 1B (PTP-1B) (Homo sapiens, UniProt P18031); assay: Protein tyrosine phosphatase 1B inhibition; format: biochemical; settings: for inhibition at 31.25 µM: 31.25 μM/mL; for inhibition at 31.25 µM / inhibition at 62.5 µM / inhibition at 125 µM / inhibition at 250 µM: read-out: PTP-1B Percent Inhibition (converted); for inhibition at 62.5 µM: 62.5 μM/mL; for inhibition at 125 µM: 125 μM/mL; for inhibition at 250 µM: 250 μM/mL; for inhibition at 500 µM: 500 μM/mL
T1 sequence (P18031 1-435): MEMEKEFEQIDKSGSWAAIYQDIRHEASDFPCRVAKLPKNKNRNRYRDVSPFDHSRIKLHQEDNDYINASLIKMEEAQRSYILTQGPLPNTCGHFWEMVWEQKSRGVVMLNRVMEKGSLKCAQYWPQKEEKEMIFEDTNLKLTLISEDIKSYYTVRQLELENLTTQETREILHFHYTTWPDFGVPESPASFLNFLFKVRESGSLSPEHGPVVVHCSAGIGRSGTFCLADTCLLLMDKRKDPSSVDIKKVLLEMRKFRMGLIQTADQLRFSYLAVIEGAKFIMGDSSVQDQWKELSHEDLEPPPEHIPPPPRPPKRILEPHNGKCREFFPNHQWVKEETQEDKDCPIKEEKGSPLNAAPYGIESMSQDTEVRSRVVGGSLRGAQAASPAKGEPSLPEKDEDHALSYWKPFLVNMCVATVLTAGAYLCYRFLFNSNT
Method: A buffer solution with pH 7 of 3,3-dimethyl glutarate was used. […] All the solutions were incubated at 27 °C for 40 min. The absorbances of the solutions were recorded at 405 nm. The observations were repeated three times. The percent inhibitions at each concentration and the IC50 values were calculated according to the standard formula.

[3] = DPPH free radical scavenging assay (antioxidant assay)
Method: To supplement the role of free radicals in diabetes, the free radical scavenging potential of compound S,S,R-5 was also determined as per the standard method. Different concentrations of the stereopure compound were prepared and DPPH solution in methanol (0.004%) were added to it. The solutions were incubated for half an hour. The absorbances of the solutions were recorded at 517 nm. The observations were repeated three times. The percent inhibitions at each concentration and the IC50 values were calculated according to the standard formula [52].

[4] = target: α-amylase; assay: In-vitro α-amylase inhibition; format: biochemical
Method: The potential of stereopure S,S,R-5 against the α-amylase was also determined as per the protocols. The enzyme solution was prepared in the phosphate buffer and was mixed with different concentrations of the compound to allow the reaction. All the solutions were incubated as per the method. Dinitrosalicylic acid was added to the compound and standard solutions. The respective solutions were heated in water baths for a few minutes. The absorbances of the solutions were recorded at 656 nm. The observations were repeated three times. The percent inhibitions at each concentration and the IC50 values were calculated according to the standard formula [50].

[5] = system: albino mice; settings: mouse, in vivo
Method: We also tested the toxicity profile of our compound S,S,R-5 by using the simple acute toxicity test in experimental albino mice. The mice were acquired and used in the animal house of our university as per the standard guidelines of the departmental ethical committee. As per the standard procedure, we gave various concentrations of compound S,S,R-5 to albino mice and observed them for the next 72 h.

[6] = 500 μM/mL, listed as minor diastereomer (S,S,R-5)

Chain of α-glucosidase (P53341 whole entry): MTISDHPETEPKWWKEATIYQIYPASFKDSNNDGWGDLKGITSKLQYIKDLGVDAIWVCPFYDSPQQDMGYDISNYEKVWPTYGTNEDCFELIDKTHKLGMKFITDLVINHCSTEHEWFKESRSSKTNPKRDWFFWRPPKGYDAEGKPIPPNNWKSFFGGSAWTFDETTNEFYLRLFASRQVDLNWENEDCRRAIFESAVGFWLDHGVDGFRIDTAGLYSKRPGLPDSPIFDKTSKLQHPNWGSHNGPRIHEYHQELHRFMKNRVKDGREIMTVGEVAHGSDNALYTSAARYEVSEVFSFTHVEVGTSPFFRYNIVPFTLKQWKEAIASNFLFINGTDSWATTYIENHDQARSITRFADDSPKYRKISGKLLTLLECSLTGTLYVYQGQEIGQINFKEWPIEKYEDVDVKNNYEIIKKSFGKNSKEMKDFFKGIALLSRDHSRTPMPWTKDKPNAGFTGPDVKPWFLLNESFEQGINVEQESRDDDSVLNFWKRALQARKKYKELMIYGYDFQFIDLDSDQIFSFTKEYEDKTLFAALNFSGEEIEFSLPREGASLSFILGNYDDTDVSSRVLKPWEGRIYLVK

Question: For `C[C@H]1O[C@H](O[C@H]2[C@H](O)[C@@H](O)[C@@H](O[C@H]3[C@H](O)[C@@H](O)C(O)O[C@@H]3CO)O[C@@H]2CO)[C@H](O)[C@@H](O)[C@@H]1N[C@H]1C=C(CO)[C@@H](O)[C@H](O)[C@H]1O` (some centres unmarked) [Acarbose], which “α-Glucosidase % Inhibition” value [1] is on record?
Answer: 95.20 ± 0.15 91.17 ± 0.53 86.98 ± 0.85 81.20 ± 0.65 77.80 ± 0.37%

Question: And the “α-Glucosidase Percent Inhibition” value [1]?
Answer: 95.20 ± 0.15 91.17 ± 0.53 86.98 ± 0.85 81.20 ± 0.65 77.80 ± 0.37%

Question: With `C[C@H]1[C@H](C)CC[C@]2(C(=O)O)CC[C@]3(C)C(=CC[C@@H]4[C@@]5(C)CC[C@H](O)C(C)(C)[C@@H]5CC[C@]43C)[C@H]12` [Ursolic acid, reference compound] as the compound, how does the inhibition at 31.25 µM [2] read?
Answer: 76%

Question: What about the inhibition at 62.5 µM [2] of the same compound?
Answer: 78.3%

Question: What about the inhibition at 125 µM [2] of the same compound?
Answer: 82.3%

Question: And the inhibition at 250 µM [2]?
Answer: 87.2%

Question: What about the inhibition at 500 µM [2] of the same compound?
Answer: 90.83 ± 0.47%

Question: For `CC(=O)C(C[C@H]1CCC(=O)[C@H]([C@@H](O)c2ccc(C(F)(F)F)cc2)C1)C(C)=O` [S,S,R-5, 3-(((1S,3S)-3-((R)-hydroxy(4-(trifluoromethyl)phenyl)methyl)-4-oxocyclohexyl)methyl)pentane-2,4-dione], which IC50 [3] is on record?
Answer: 2360 ± 100 nM

Question: What about the “DPPH Percent Inhibition” value ([3]; 31.25 μM/mL) of the same compound?
Answer: 71.90 ± 0.45%

Question: What about the “DPPH Percent Inhibition” value ([3]; 62.5 μM/mL) of the same compound?
Answer: 76.00 ± 0.30%

Question: And the “DPPH Percent Inhibition” value ([3]; 125 μM/mL)?
Answer: 81.90 ± 0.60%

Question: And the “DPPH Percent Inhibition” value ([3]; 250 μM/mL)?
Answer: 87.45 ± 0.90%

Question: And the IC50 [4]?
Answer: 4580 ± 140 nM

Question: And the “α-Amylase Percent Inhibition” value ([4]; 31.25 μM/mL)?
Answer: 58.47 ± 0.56%

Question: And the “α-Amylase Percent Inhibition” value ([4]; 62.5 μM/mL)?
Answer: 62.28 ± 0.57%

Question: And the “α-Amylase Percent Inhibition” value ([4]; 125 μM/mL)?
Answer: 68.90 ± 0.96%

Question: What about the “α-Amylase Percent Inhibition” value ([4]; 250 μM/mL) of the same compound?
Answer: 73.08 ± 0.47%

Question: What about the “Acute toxicity: behavioral changes or lethality” value [5] of the same compound?
Answer: no unwanted behavioral changes or lethality

Question: And the IC50 [2]?
Answer: 910 ± 100 nM

Question: And the inhibition at 31.25 µM [2]?
Answer: 73.7%

Question: What about the inhibition at 62.5 µM [2] of the same compound?
Answer: 76.2%

Question: And the inhibition at 125 µM [2]?
Answer: 79.6%

Question: What about the inhibition at 250 µM [2] of the same compound?
Answer: 84.4%

Question: For `CC(=O)C(CC1CCC(=O)C(C(O)c2ccc(C(F)(F)F)cc2)C1)C(C)=O` [minor (S,S,R-5)], which “DPPH % Inhibition” value [3, 6] is on record?
Answer: 70.21%

Question: And the “α-Amylase % Inhibition” value [4, 6]?
Answer: 72.65%

Question: What about the inhibition at 500 µM [2] of the same compound?
Answer: 65.4%
